# Results from patent US4145444A, “Anti-inflammatory agent of benzoyl derivative” (priority 1977, dated 1979).
# Where two headings read alike, the source gives them in different places.
# What was measured:
# [1] = tested on: thrombus; assay: Inhibiting effect on thrombosis (by-pass between left juglar vein and right carotid artery, silk thread); format: in vivo, SD type male rates; conditions: Rattus norvegicus; 100 mg/kg oral, 5 hours before first blood circulation, rats; read-out: Thrombosis inh.: thrombosis inhibition rate
# Experimental: The inhibiting effects of the samples of the invention on thrombosis were tested by the following test method.
# A 0.5 ml of 50 μ/ml of the heparin physiological saline was added through the polyethylene tube before the first blood circulation. After the blood circulation for 15 minutes, the circulation was stopped in the middle of the tubing at artery side with a pinch cock.
# Then, 0.2 ml of the heparin physiological saline was added to remove the blood coagulates on the tubing wall and another new polyethylene tubing filled with the heparin solution and containing a piece of new silk thread was attached between the venous and artery tubing ends.
# The blood circulation was reestablished by opening the pinch cock. After 15 minutes, the wet weight of thrombus on the silk thread was similarly measured.
# In the same manner, the third circulation was performed and wet weight of thrombus measured.
# The amount of thrombus was given by the equation A. [formula] Each sample was suspended in an aqueous solution of sodium carboxymethyl cellulose and the oral dose of the suspension (100 mg/kg) was performed at 5 hours before the first blood circulation.
# The amount of thrombus after the oral dose of the sample was calculated in the same manner as that of control circulations.
# The thrombosis inhibition rate was given by the equation B. [formula]
# [2] = tested on: platelet; assay: Blood platelet aggregation inhibiting effect (collagen-induced); format: cell-based, rabbits; conditions: 10^-4 mole, collagen inducer, rabbit PRP; for inhibition at 100 µM: Oryctolagus cuniculus, Platelet, read-out: Blood platelet agg. inh.: percentage inhibition of platelet aggregation
# Source text: Male rabbits (Japan original white strain 3.3 to 3.6 kg) were anesthetized with Thiopental sodium and blood was sampled from the carotid artery.
# [3] = tested on: male mice; assay: Analgesic effect: painful stretchings following intraperitoneal 0.7% acetic acid; conditions: Mus musculus, po, read-out: Analgesic: percentage diminition of times of painful stretching
# Experimental: Each sample was orally administered in the dosage of 100 mg/kg before injection of acetic acid.
# [4] = tested on: hind paws of male rats; assay: Anti-inflammatory effect: acute carragheenin edema method; format: in vivo; conditions: for inhibition in vivo at 100 mg/kg: Rattus norvegicus, 100 mg/kg oral, carragheenin edema, read-out: Anti-inf.: edema inhibition rate
# Experimental: The edema was induced by subcutaneous injection of 1% carragheenin suspension in saline to the hind paws of male rats weighting 150 to 180 g. Each sample was orally given at the dosage of 100 mg/kg just before the inoculation of carragheenin.
compound,measurement,setting,value
CCCCCOc1ccc(C(=O)Cc2ccccc2)cc1 [compound 59],inhibition in vivo at 100 mg/kg,[1],14.1%
same,inhibition at 100 µM,[2],25.6%
same,inhibition in vivo at 100 mg/kg,[3],22.8%
same,inhibition in vivo at 100 mg/kg,[4]; male rats (Table 2),20.7%
Cc1ccc(C(=O)c2cccc(F)c2)c(C)c1 [compound 126],inhibition in vivo at 100 mg/kg,[4]; male rats (Table 2'),27.7%
CCCCc1ccc(C(=O)c2ccc(F)cc2C)cc1 [compound 46],inhibition in vivo at 100 mg/kg,[1],34.5%
same,inhibition at 100 µM,[2],16.5%
same,inhibition in vivo at 100 mg/kg,[3],13.4%
same,inhibition in vivo at 100 mg/kg,[4]; male rats (Table 2),43.4%
COc1ccc(C(=O)Cc2ccc(Cl)cc2)cc1 [compound 60],inhibition in vivo at 100 mg/kg,[1],12.3%
same,inhibition at 100 µM,[2],4%
same,inhibition in vivo at 100 mg/kg,[3],6.3%
same,inhibition in vivo at 100 mg/kg,[4]; male rats (Table 2),13.2%
CCCCc1ccc(C(=O)c2ccc(OC)cc2)cc1 [compound 18],inhibition in vivo at 100 mg/kg,[1],24.2%
same,inhibition at 100 µM,[2],9.3%
same,inhibition in vivo at 100 mg/kg,[3],20.1%
same,inhibition in vivo at 100 mg/kg,[4]; male rats (Table 2),41.6%
CCCCc1ccc(C(=O)c2ccc(C)cc2)cc1 [compound 35],inhibition in vivo at 100 mg/kg,[1],2.65%
same,inhibition at 100 µM,[2],11.3%
same,inhibition in vivo at 100 mg/kg,[3],17.8%
same,inhibition in vivo at 100 mg/kg,[4]; male rats (Table 2),48.5%
CCCCc1ccc(C(=O)c2ccc(CCCC)cc2)cc1 [compound 43],inhibition in vivo at 100 mg/kg,[1],86%
same,inhibition at 100 µM,[2],3.5%
same,inhibition in vivo at 100 mg/kg,[3],0%
same,inhibition in vivo at 100 mg/kg,[4]; male rats (Table 2),34%
CCCc1ccc(C(=O)c2ccc(C)cc2)cc1 [compound 34],inhibition in vivo at 100 mg/kg,[1],24.5%
same,inhibition at 100 µM,[2],16.4%
same,inhibition in vivo at 100 mg/kg,[3],12.1%
same,inhibition in vivo at 100 mg/kg,[4]; male rats (Table 2),43.1%
CCCCCc1ccc(C(=O)c2ccc(CCCCC)cc2)cc1 [compound 111],inhibition in vivo at 100 mg/kg,[1],17.3%
same,inhibition at 100 µM,[2],10.3%
same,inhibition in vivo at 100 mg/kg,[3],11.3%
same,inhibition in vivo at 100 mg/kg,[4]; male rats (Table 2),20.6%
CCCCc1ccc(C(=O)c2ccc(CCC)cc2)cc1 [compound 98],inhibition in vivo at 100 mg/kg,[1],35.4%
same,inhibition at 100 µM,[2],28.3%
same,inhibition in vivo at 100 mg/kg,[3],16.4%
same,inhibition in vivo at 100 mg/kg,[4]; male rats (Table 2),31.9%
CCCCc1ccc(C(=O)c2ccc(Cl)cc2)cc1 [compound 64],inhibition in vivo at 100 mg/kg,[1],15.9%
same,inhibition at 100 µM,[2],28.5%
same,inhibition in vivo at 100 mg/kg,[3],6.6%
same,inhibition in vivo at 100 mg/kg,[4]; male rats (Table 2),21.4%
CCCc1ccc(C(=O)c2cccc(C)c2)cc1 [compound 87],inhibition in vivo at 100 mg/kg,[1],25.8%
same,inhibition at 100 µM,[2],30.1%
same,inhibition in vivo at 100 mg/kg,[3],11.2%
same,inhibition in vivo at 100 mg/kg,[4]; male rats (Table 2),18.7%
CCCCCCCCc1ccc(C(=O)c2ccccc2Br)cc1 [compound 145],inhibition in vivo at 100 mg/kg,[4]; male rats (Table 2'),60.2%
CCCCCc1ccc(C(=O)c2ccc(F)cc2)cc1 [compound 128],inhibition in vivo at 100 mg/kg,[4]; male rats (Table 2'),33.6%
Cc1cc(C)c(C(=O)c2ccc(F)cc2)c(C)c1 [compound 131],inhibition in vivo at 100 mg/kg,[4]; male rats (Table 2'),33.6%
COc1ccc(C(=O)c2ccc(Cl)cc2)cc1 [compound 136],inhibition in vivo at 100 mg/kg,[4]; male rats (Table 2'),13.2%
Cc1cc(C)c(C(=O)c2ccccc2)c(C)c1 [compound 30],Blood platelet agg. inh.: percentage inhibition of platelet aggregation,[2],8.7%
Cc1ccc(C(=O)c2ccccc2Br)c(C)c1 [compound 146],inhibition in vivo at 100 mg/kg,[4]; male rats (Table 2'),23.1%
CCCCCCCCc1ccc(C(=O)c2ccc(I)cc2)cc1 [compound 164],inhibition in vivo at 100 mg/kg,[4]; male rats (Table 2'),29%
CCCCc1ccc(C(=O)c2cccc(F)c2)cc1 [compound 123],inhibition in vivo at 100 mg/kg,[4]; male rats (Table 2'),38.3%
CC(C)c1ccc(C(=O)c2ccccc2F)cc1 [compound 117],inhibition in vivo at 100 mg/kg,[4]; male rats (Table 2'),53.3%
CCCCCCCCc1ccc(C(=O)c2ccc(F)cc2)cc1 [compound 129],inhibition in vivo at 100 mg/kg,[4]; male rats (Table 2'),38.6%
O=C(c1ccccc1)c1ccc(C2CCCCC2)cc1 [compound 73],Blood platelet agg. inh.: percentage inhibition of platelet aggregation,[2],20.3%
CCCc1ccc(C(=O)c2ccccc2Cl)cc1 [compound 132],inhibition in vivo at 100 mg/kg,[4]; male rats (Table 2'),14.9%
Cc1cc(C)c(C(=O)c2ccc(Br)cc2)c(C)c1 [compound 153],inhibition in vivo at 100 mg/kg,[4]; male rats (Table 2'),27.8%
"O=C(c1ccccc1)c1ccccc1F [Active ingredient No. 15, 2-fluorobenzophenone]","anti-inflammatory effect, inhibition rate (ED50), in words","[4]; rat, in vivo",especially high inhibition rate (ED50)
CCCCCc1ccc(C(=O)c2ccccc2Cl)cc1 [compound 133],inhibition in vivo at 100 mg/kg,[4]; male rats (Table 2'),38.3%
CCCCCCOc1ccc(C(=O)c2ccc(Cl)cc2)cc1 [compound 138],inhibition in vivo at 100 mg/kg,[4]; male rats (Table 2'),12.5%
CCCc1ccc(C(=O)c2ccccc2I)cc1 [compound 154],inhibition in vivo at 100 mg/kg,[4]; male rats (Table 2'),29%
CC(C)(C)c1ccc(C(=O)c2ccccc2F)cc1 [compound 120],inhibition in vivo at 100 mg/kg,[4]; male rats (Table 2'),38.3%
Cc1cc(C)c(C(=O)c2ccc(I)cc2)c(C)c1 [compound 166],inhibition in vivo at 100 mg/kg,[4]; male rats (Table 2'),21.5%
CCCCCc1ccc(C(=O)c2cccc(Cl)c2)cc1 [compound 140],inhibition in vivo at 100 mg/kg,[4]; male rats (Table 2'),14.9%
Cc1cc(C)c(C(=O)c2cccc(I)c2)c(C)c1 [compound 163],inhibition in vivo at 100 mg/kg,[4]; male rats (Table 2'),16.4%
